Entries after “also recorded” stand apart in the source; their conditions may differ. Like-named read-outs stand apart in the source and are kept apart here.

Results on 2 compounds are retold here after US20040038828A1 (priority 2002, published 2004).

In assay [1] the test system is Fusarium oxysporum f. sp. lycopersici (isolate FP-7) spores. In words: Fusarium Tetrazolium Assay. It counts as cell-based. The conditions noted are these: 24 hours of exposure; MTT absorbance at 570 nm. On the procedure:
Fusarium Tetrazolium Assay: The evaluation of fungicidal activity was performed using a modified colorimetric assay (Mace, M. E., et al., Pesticide Biochemistry and Physiology, 38: 57-59 (1990)). Each candidate compound was tested using a suspension of Fusarium oxysporum f. sp. lycopersici (isolate FP-7) spores harvested from 10-day old petri plates using a 0.05% stock solution of Triton X-100 (referred to as FT stock). Harvested spores were suspended in Czapek-Dox Broth (CDB), prepared according to label instructions, at a ratio of 1:5 CDB:FT. The suspension was then standardized using a Beckman spectrophotometer (430 nm) which had been calibrated using a CDB blank. Compounds were then added to aliquots of the suspension to achieve active ingredient concentrations ranging from 0 ppm (untreated control) to 2000 ppm. Suspensions were incubated for 24 hr at 28° C. A 10% stock solution of MTT ((3-4,5-dimethylthiazole-2-yl)-2,5-diphenyl-2-2H-tetrazolium bromide) was then added to each aliquot; MTT is a vital stain that is commonly used to show if an organism is alive based on a color change). The suspensions were allowed to incubate for 4 hr, and then pelleted, drained, rinsed, and treated with 95% ethanol. The color change, which correlates with spore viability, was assessed using a Beckman spectrophotometer (570 nm) calibrated with 95% ethanol. Benlate® (benomyl) was used as an industry standard control. Each treatment was replicated six times and the assay for each compound was repeated. Regression analysis was performed using Sigma Plot 2000.

Assay [2] deals with root-knot nematode eggs (Meliodogyne incognita). The experiment in a line: Nematicide screen, root-knot nematode galling assay on tomato. The format is in vivo. The settings on record: 0 to 2000 ppm soil drench, tarped 14 days, seedlings assessed 30 days after transplant. On the procedure:
Nematicide Screen: Efficacy as a nematicide was evaluated by infesting field soil with a standardized quantity of root-knot nematode eggs (Meliodogyne incognita). Soil was partitioned into 10 cm pots containing 500 g of soil each with soil moisture adjusted to 5%. Pots were treated with compounds ranging from 0 ppm to 2000 ppm of active ingredient in a 100-ml soil drench. Six replicate pots of each concentration were treated and tarped with co-extruded black-on-white polyethylene mulch for 14 days. After tarps were removed, a single tomato seedling was transplanted into each pot. Seedlings were removed 30 days later and assessed for root galling, root fresh weight, root dry weight, and number of eggs produced per gram of root tissue.

The subject of assay [3] is purple nutsedge (Cyperus rotundus) tubers. The experiment in a line: Herbicide screen, nutsedge greenhouse assay (soil drench in pots). It counts as in vivo. The settings on record: for level eliminating the germination of nutsedge: 100 ml soil drench, 500 g soil, tarped 7 days, shoots counted for 60 days. On the procedure:
(§1) Herbicide Screen: Each compound was tested on seeds of smooth pigweed (Amaranthus hybridus) and barnyard grass (Echinocloa crus-galli), and on tubers of purple nutsedge (Cyperus rotundus), by exposing seeds or tubers to a specific concentration of the test compound. Seeds were surface sterilized (by rinsing in 2% bleach solution for 90 seconds followed by two rinses with sterile water) and 20 seeds placed on sterile filter paper (Whatman #5) in a 10-cm petri plate for each of six replicates for each weed species tested. Twenty ml of compound of concentrations ranging from 0 ppm (sterile water control) to 2000 ppm was added to the petri dishes. Plates were stored at 30° C. in an dark incubator. Seed germination was monitored at 24 hr intervals for 30 days. Petri plate bioassays were repeated twice for each compound. Field collected purple nutsedge tubers were placed in 500 g of field soil with soil moisture adjusted to 5%. Five nutsedge tubers were planted in each 10 cm pot at a depth of 2.5 cm. Six replicate pots of each concentration, ranging from 0 ppm (water control) to 2000 ppm, were treated using 100 ml as a soil drench. Pots were tarped with co-extruded black-on-white polyethylene mulch for 7 days. After the tarps were removed, the number of emerged nutsedge shoots was recorded on a weekly basis for 60 days.

The subject of assay [4] is smooth pigweed (Amaranthus hybridus) seeds. In words: Herbicide screen, smooth pigweed petri plate bioassay. The conditions noted are these: all ppm levels tested (up to 2000 ppm), 30 days. The format is in vivo. On the procedure: as §1
Assay [5] concerns barnyard grass (Echinocloa crus-galli) seeds. The experiment in a line: Herbicide screen, barnyard grass petri plate bioassay. It counts as in vivo. The conditions noted are these: all ppm levels tested (up to 2000 ppm), 30 days. On the procedure:
as §1

Assay [6] has as its system Shepherd-spurse. The format is in vivo. The conditions noted are these: Salinas plots; rate 400 lbs acres^−1.
Assay [7] relates to Common chickweed. It counts as in vivo. The conditions noted are these: Watsonville plots; rate 400 lbs acres^−1.
Assay [8] concerns native weed population. It counts as in vivo.
Assay [9] concerns Corn spurry. The format is in vivo. The conditions noted are these: Watsonville plots; rate 400 lbs acres^−1.
The test system of assay [10] is Henbet. It counts as in vivo. The conditions noted are these: Salinas plots; rate 400 lbs acres^−1.
Assay [11] concerns Annual sowthistle. It counts as in vivo. The conditions noted are these: Watsonville plots; rate 400 lbs acres^−1.
The test system of assay [12] is Verticillium dahliea. The format is in vivo. The settings on record: Watsonville; preplant fumigation, 400 pound per acre.
Assay [13] relates to Commong roundsel. The format is in vivo. The conditions noted are these: Salinas plots; rate 400 lbs acres^−1.
Assay [14] relates to Southern brassbuttons. The format is in vivo. The conditions noted are these: Watsonville plots; rate 400 lbs acres^−1.
In assay [15] the test system is native weed population. The format is in vivo. The conditions noted are these: Salinas plots, rate 400 lbs acres^−1.
The test system of assay [16] is Redstem filaree. It counts as in vivo. The settings on record: Watsonville plots; rate 400 lbs acres^−1.
Assay [17] has as its system Little mallow. It counts as in vivo. The settings on record: Watsonville plots; rate 400 lbs acres^−1.

As for `OCCI` [2-iodoethanol], in assay [1], the “concentration effective at reducing cell viability to levels achieved with Benlate (100 ppm)” value is given as 100-500 ppm and the “fungicidal activity (in words)” value is “comparable to the Benlate® control; also recorded: excellent fungicidal activity”. Also, in assay [2], the “root gall severity on tomato” value is recorded as “galling decreases with increased concentration”. In addition, the “level eliminating the germination of nutsedge” value in [3] is at least 500 ppm. Further, the “germination of pigweed seeds” value in assay [4] is on record as “eliminated at all ppm levels tested”. Moreover, the “germination of barnyard grass seeds” value in assay [5] is “eliminated at all ppm levels tested”.

`OCCBr` [2-bromoethanol]: the “weed biomass, Shepherd-spurse” value in assay [6] is reported as 11.3 gram/m^2. Besides, in assay [7], the “weed biomass, Common chickweed” value came to 1.6 gram/m^2. Further, in assay [1], the “fungicidal activity (in words)” value is “excellent fungicidal activity”. In assay [8] (Watsonville), the “control of native weeds (in words)” value is “control of most weeds”. For the same compound, the “weed biomass, Other weeds” value was found to be 3.6 gram/m^2 in assay [8] (Watsonville plots, rate 400 lbs acres^−1) and 21.5 gram/m^2 in [15]. Further, the Total weed biomass in [8] (Watsonville plots, rate 400 lbs acres^−1, same letter = not significantly different at P <0.05) was 13.7a gram/m^2; in assay [15] (same letter = not significantly different at P < 0.05), 46.7a gram/m^2. The “root gall severity on tomato” value in assay [2] is “Only the untreated control showed galling of any kind”. In addition, the “weed biomass, Corn spurry” value in assay [9] is listed as 1.1 gram/m^2. Besides, in [10], the “weed biomass, Henbet” value amounted to 9.4 gram/m^2. For the same compound, the “weed biomass, Annual sowthistle” value in [11] is 0.0 gram/m^2. In addition, the “reduction of the population of Verticillium dahliea” value in assay [12] turned out to be 74%. Besides, the “level eliminating the germination of nutsedge” value in [3] is given as at least 1000 ppm. In assay [3] (at the 500 ppm level), the nutsedge germination result is recorded as “approximately 50%”. In addition, the “soil applied equivalent of the rate eliminating nutsedge germination” value in assay [3] (equivalent of the 1000 ppm drench level) was determined as 200 ppm. In addition, the “weed biomass, Commong roundsel” value in assay [13] was 0.3 gram/m^2. In addition, in assay [14], the “weed biomass, Southern brassbuttons” value amounted to 1.0 gram/m^2. For the same compound, in assay [4], the “germination of pigweed seeds” value is reported as “eliminated at all ppm levels tested”. The “weed biomass, Redstem filaree” value in assay [16] amounted to 0.3 gram/m^2. In addition, the “weed biomass, Little mallow” value in [17] amounted to 0.2 gram/m^2. The “germination of barnyard grass seeds” value in [5] was “eliminated at all ppm levels tested”.
